pIC50: −log10 of the molar value.
What was measured:
GST-Pin1 = GST-Pin1 (Homo sapiens, UniProt Q13526); assay: Pin1 substrate activity assay (chymotrypsin-coupled PPIase assay); format: biochemical; conditions: pre-incubation 12 hours at 4° C.
Protocol: Inhibition of Pin1 isomerase activity was determined using the chymotrypsin-coupled PPIase assay, using GST-Pin1 and Suc-Ala-pSer-Pro-Phe-pNA (SEQ ID NO: 2) peptide substrate ([…]), according to procedures described by Yaffe [Science 1997, 278:1957-1960]. GST-Pin1 was pre-incubated with the indicated concentrations of compound for 12 hours at 4° C. in buffer containing 35 mM HEPES (pH 7.8), 0.2 mM DTT, and 0.1 mg/ml BSA (bovine serum albumin). Immediately before the assay was started, chymotrypsin (final concentration of 6 mg/ml), followed by the peptide substrate (Suc-Ala-pSer-Pro-Phe-pNA (SEQ ID NO: 2) peptide substrate, final concentration […]) was added. The apparent Ki value (under the tested conditions) obtained from the PPIase assay was derived from the Cheng-Prusoff equation: […]
wherein Km is the Michaelis constant for the used substrate, S is the initial concentration of the substrate in the assay, and IC50 is the half-minimal inhibitory concentration of the inhibitor.
Covalent labeling of Pin1 was confirmed to translate into enzyme inhibition via a fluorescence polarization (FP) competition assay using a FITC-labeled substrate mimetic peptide inhibitor, as well as a chymotrypsin-coupled PPIase assay, using procedures described in Wei et al. [Nat Med 2015, 21:457-466].

Pin1 in IMR32 cells = molecular target: T1, Pin1 in IMR32 cells (Homo sapiens, UniProt Q13526); assay: Live cell competition assay with Pin1-3-DTB pull-down, IMR32 cells; format: cell-based; conditions: IMR32 cells
T1 construct: endogenous in cells; host or cells: IMR32
Protocol: The indicated cells were treated with increasing concentrations of either DMSO, Pin1-3, or Pin1-3-AcA for 5 hours. Cells were harvested by scraping and washed twice with PBS before lysis with 50 mM HEPES (pH 7.4), 1 mM EDTA, 10% glycerol, 1 mM TCEP, 150 mM NaCl, 1 mM EDTA, 0.5% NP-40, and protease inhibitor tablet (Roche cat. #4693159001). After clarifying (14,000 rpm for 15 minutes), samples were treated with the indicated concentrations of Pin1-3-DTB at 4° C. for 1 hour. Lysates were then incubated with streptavidin agarose resin (Thermo Scientific, cat. #20349) for 1.5 hour at 4° C. Beads were washed four times with 500 μl of washing buffer (50 mM HEPES (pH 7.5), 10 mM NaCl, 1 mM EDTA, 10% glycerol), then pelleted by centrifugation and dried. The beads were boiled for 5 minutes at 95° C. in 2×LDS+10% β-mercaptoethanol. Proteins of interest were then assessed via Western blotting using the bolt system (Life Technologies).
The indicated cells were plated in 10 cm plates with 2.5 million cells per plate in 6 ml of medium. The day after plating, cells were treated with the indicated concentrations of candidate inhibitor for the indicated time points. The cells were then washed two times with cold phosphate buffer saline (1 ml per 10 cm plate) and collected by scraping with a cell scraper. […]

[1] = test system: transplanted EGFP-labeled neuroblastoma cells; assay: Primary tumor derived allograft (PDA) neuroblastoma model in zebrafish embryos; format: in vivo; conditions: 100 μM in the fish water, five days
Protocol: The anti-tumor activity of Pin1-3 was then assessed on the maintenance of fully transformed neuroblastoma cells in vivo in primary tumor derived allograft (PDA) models constructed in transplanted zebrafish embryos. EGFP-labeled neuroblastoma cells were dissected from 4-month-old Tg(dβh:MYCN;dβh:EGFP) donor zebrafish, disaggregated, counted and 200-400 GFP-labeled tumor cells were injected intravenously into the Duct of Cuvier (common cardinal vein) of 2 dpf zebrafish embryos [He et al., J Pathol 2012, 227:431-445]. One day after injection, 100 μM Pin1-3 or the DMSO control was added to the fish water containing embryos bearing the transplanted EGFP-labeled neuroblastoma cells. Five days later, the area of the EGFP-labeled tumor mass in treated embryos was quantified.

[2] = test system: MYCN-overexpressing PSNS neuroblasts; assay: Zebrafish embryo model of MYCN-driven neuroblastoma; format: in vivo
Text: Zebrafish were used for a model of childhood neuroblastoma, in which the tissue-specific overexpression of the human MYCN transgene using the dopamine β hydroxylase (dβh) promoter in the zebrafish peripheral sympathetic nerve system (PSNS) drives neuroblastoma tumorigenesis in zebrafish [Zhu et al., Cancer Cell 2012, 21:362-373]. The fish are also transgenic for a PSNS-specific dβh:EGFP reporter line, so that the tumors can be visualized by EGFP. In this model, hyperproliferation of sympathetic neuroblasts is evident in the […] (counterpart of the adrenal medulla) starting at 4 days post-fertilization (dpf).
Zebrafish embryos at 3 dpf were treated with different concentrations of the test compound in the egg water (reverse osmosis or RO water with 0.6 gm/liter instant ocean salts) for 4 days. The embryos were transferred to egg water containing freshly diluted drug after 2 days (5 dpf). The embryos were then imaged at 7 dpf, and the relative EGFP+MYCN-overexpressing neuroblast cross-sectional area for each experimental group was quantified.
The effect of Pin1-binding […] on neuroblastoma cells was assessed using a zebrafish embryo model of neuroblastoma, using procedures described in the Materials and Methods section hereinabove. Neuroblastoma is a pediatric malignancy derived from the peripheral sympathetic nervous system (PSNS). […] Overexpression of the MYCN oncogene, which is the oncogenic driver in approximately 20% of human high-risk neuroblastomas, in the PSNS of Tg(dβh:MYCN;dβh:EGFP) transgenic zebrafish, causes the fish to develop neuroblast hyperplasia (as shown, for example, in FIG. 42), which rapidly progress into fully transformed tumors that faithfully resemble human high-risk neuroblastoma [Zhu et al., Cancer Cell 2012, 21:362-373; He et al., Elife 2016, 5; Zimmerman et al., Cancer Discov 2016, 8:320-335].

Sequence of GST-Pin1 (Q13526 whole entry): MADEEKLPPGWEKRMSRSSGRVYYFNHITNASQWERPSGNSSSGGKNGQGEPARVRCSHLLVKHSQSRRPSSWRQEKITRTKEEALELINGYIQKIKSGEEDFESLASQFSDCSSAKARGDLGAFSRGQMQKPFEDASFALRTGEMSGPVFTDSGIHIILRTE
T1 sequence (Q13526 whole entry): as above

## CC(C)(C)CN(C(=O)CCl)C1CCS(=O)(=O)C1 (stereo not drawn) [Pin1-3, 2-chloro-N-(sulfolan-3-yl)-N-neopentylacetamide]
GST-Pin1
  pIC50: 6.99
Pin1 in IMR32 cells
  Concentration of full engagement of Pin1: 1 µM
[1]
  EGFP-labeled tumor mass: tumor masses decreased in size
[2]; 100 μM for 4 days
  Cross-section of the EGFP-expressing PSNS cells: indistinguishable from that of controls without hyperproliferation
[2]; 25 to 100 μM in the egg water
  Toxicity in embryos: no evidence of toxicity
[2]; 25 to 100 μM in the egg water, 3 to 7 dpf
  Hyperproliferation of MYCN-overexpressing PSNS neuroblasts: suppressed the hyperproliferation of MYCN-overexpressing PSNS neuroblasts

— patent publication US20210332024A1, “MODULATORS OF PIN1 ACTIVITY AND USES THEREOF” (Yeda Research and Development Co. Ltd., priority 2019, published 2021)
